Read-outs that look alike come from different tables or passages of the source.
Experiments:
tubulin = molecular target: T1, tubulin (Sus scrofa, UniProt P02550+P02554); test: Inhibition test of tubulin monomer polymerization (Tubulin polymerization assay kit, fluorescence); assay type: biochemical
T1 construct: purchased cytoskeleton BK011P
Procedure: Tubulin polymerization assay kit (cytoskeleton, Cat. # BK011P) was used to conduct the compound inhibition test of tubulin monomer polymerization.
Before the test, the 96-well plate (Corning Costar, Cat. # 3686) supplied with the kit was first placed in a microplate reader (MD, SpectraMax M5) and heated to 37°C, maintained for 10 minutes. The 96-well plate was then removed, and 5 µL of 12.5 µM compound solution or blank solution was added thereto. The 96-well plate was then placed back into the microplate reader and incubated at 37°C for 1 minute to heat the compound solution to 37°C. The 96-well plate was removed and 50 µL of reaction mixture prepared according to the supplier's instructions was quickly added to each well, completing the sample addition within 1 minute to avoid the formation of bubbles. The 96-well plate was then immediately placed back into the microplate reader, shaken for 5 seconds, and using the Kinetic mode, continuous detection was carried out at 37°C for 30 to 60 minutes under the conditions of excitation light at 360 nm and emission light at 420 nm, with detection every 30 seconds. Taking the detection time as the X-axis and the fluorescence signal value as the Y-axis, the tubulin monomer polymerization curve was obtained. As shown in FIG. 66 and Table 40, the larger the Vmax value and the higher the maximum fluorescence signal value of the polymerization curve, the lower the inhibitory efficiency of the compound.

[1] = Thermodynamic solubility test; assay type: physicochemical; conditions: for solubility: thermodynamic from solid, 4 mg/mL, overnight at room temperature
Procedure: Phosphate buffer saline (PBS) with a pH of 7.4, FeSSIF solution with a pH of 6.5, and FaSSGF solution with a pH of 1.6 were prepared. The compound was accurately weighed and added to prepared phosphate buffer saline with a pH of 7.4, FeSSIF solution with a pH of 6.5, and FaSSGF solution with a pH of 1.6 to prepare into a solution with a concentration of 4 mg/mL. The solution was shaken at a speed of 1000 rpm for 1 hour, and then incubated overnight at room temperature. The incubated solution was centrifuged at 12,000 rpm for 10 minutes to remove undissolved particles, and the supernatant was transferred to a new centrifuge tube. After the supernatant was appropriately diluted, an acetonitrile solution containing internal standard was added, and a standard curve prepared with the same matrix was used for quantification. Table 42: Thermodynamic solubility test results

p-SRC = test: Inhibition of Src signaling pathway (Western Blot of p-SRC in A-431 cells); assay type: cell-based, Human
Procedure: The Western Blot method was used to detect the compound's inhibition of p-SRC in A-431 skin cancer cells (ATCC, CRL-1555) to evaluate the inhibitory effect of the compound on the SRC signaling pathway.
A-431 cells were cultured in DMEM medium containing 10% fetal bovine serum and grown at 37°C in a 5% CO2 incubator. 500,000 cells/well were seeded in a 12-well cell culture plate and cultured overnight at 37°C in a 5% CO2 incubator. The next day, the culture medium was replaced and different concentrations of the compound were added, with DMSO serving as a control. After the addition of the compounds, the culture plate was cultured for another 24 hours at 37°C in a 5% CO2 incubator. The cells were washed once with PBS, and lysed with RIPA lysis buffer (R0010, Solarbio) at low temperature for 30 minutes. Afterwards, the protein lysate was collected into a centrifuge tube, centrifuged at 14,000 g at 4°C for 10 minutes, and the supernatant was transferred to a new tube. The BCA protein concentration assay kit (P0009, Beyotime Biotechnology) was used to detect and calculate the protein concentration. A 5× protein loading buffer was used to quantify the protein of each sample consistently. The samples were boiled at 100°C for 5 minutes, and subjected to western blot to detect the level of p-SRC. […]

[2] = system: actinic keratosis patient-derived cell HT 297.T; test: Cell proliferation inhibition test, HT 297.T; assay type: cell-based, Human
Procedure: Human cutaneous squamous cell carcinoma cell A-431 (ATCC, CRL-1555) and actinic keratosis patient-derived cell HT 297.T (ATCC, CRL-7782) proliferation assays were used to detect the inhibitory effect of small molecular compounds on cell proliferation.
A-431 cells and HT 297.T cells were cultured in DMEM medium containing 10% fetal bovine serum and grown at 37°C in a 5% CO2 incubator. Cells on logarithmic phase were seeded into a 96-well cell culture plate at 1000 cells/well, 100 µL per well, and then cultured overnight at 37°C in a 5% CO2 incubator. The next day, 100 µL of gradient-diluted 2× test compound solution was added to each well, with DMSO serving as a positive control, and 10 µM staurosporine (Aladdin, S102392) was set as a negative control group. After the addition of the compounds, the culture plate was incubated for another 4 days at 37°C in a 5% CO2 incubator. After incubation, the Steady-Glo® luciferase assay system (Promega, G9243) was used according to the supplier's instructions to measure the fluorescence signal value on the Envision 2104 Multilabel Reader. The inhibition rate was calculated by the following formula, then the curve was plotted with the Log value of the inhibitor concentration as the X-axis and the inhibition rate as the Y-axis, and the IC50 was calculated using Graphpad 8.0. [formula] Table 41: Inhibition results of test compounds on proliferation activity of A-431 and HT 297.T cells

T1 sequence (P02550 whole entry): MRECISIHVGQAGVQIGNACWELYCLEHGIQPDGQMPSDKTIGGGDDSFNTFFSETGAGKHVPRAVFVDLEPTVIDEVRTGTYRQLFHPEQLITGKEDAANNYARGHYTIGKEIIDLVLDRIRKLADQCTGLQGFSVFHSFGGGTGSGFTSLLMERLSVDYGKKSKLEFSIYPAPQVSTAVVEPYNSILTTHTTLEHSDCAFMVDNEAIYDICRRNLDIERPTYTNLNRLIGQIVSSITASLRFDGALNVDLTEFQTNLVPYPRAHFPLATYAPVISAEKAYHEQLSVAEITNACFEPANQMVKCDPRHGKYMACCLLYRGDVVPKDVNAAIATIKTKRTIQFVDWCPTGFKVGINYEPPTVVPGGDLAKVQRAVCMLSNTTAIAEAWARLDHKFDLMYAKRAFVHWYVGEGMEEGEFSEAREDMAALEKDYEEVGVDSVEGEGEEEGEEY
T1 sequence (P02554 whole entry): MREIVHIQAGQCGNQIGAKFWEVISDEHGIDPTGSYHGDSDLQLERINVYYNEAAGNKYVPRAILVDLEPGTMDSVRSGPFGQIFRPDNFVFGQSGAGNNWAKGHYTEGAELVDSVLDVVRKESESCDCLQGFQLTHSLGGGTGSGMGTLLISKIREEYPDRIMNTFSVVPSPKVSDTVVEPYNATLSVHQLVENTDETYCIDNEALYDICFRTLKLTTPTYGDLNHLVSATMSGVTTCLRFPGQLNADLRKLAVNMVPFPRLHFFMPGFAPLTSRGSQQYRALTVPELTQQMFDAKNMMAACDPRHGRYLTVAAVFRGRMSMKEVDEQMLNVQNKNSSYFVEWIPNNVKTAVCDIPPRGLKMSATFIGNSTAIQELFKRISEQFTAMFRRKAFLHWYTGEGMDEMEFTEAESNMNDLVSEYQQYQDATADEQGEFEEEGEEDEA

With `Cc1cc(OCCN2C[C@H]3COC[C@H]3C2)ccc1-c1ccc(CC(=O)NCc2ccccc2)nc1` [Compound of Formula I, N-benzyl-2-(5-(2-methyl-4-(2-((3aR,6aS)-tetrahydro-1H-furo[3,4-c]pyrrol-5(3H)-yl)ethoxy)phenyl)pyridin-2-yl)acetamide] the Maximum signal value (tubulin; 5 µL of 12.5 µM compound solution, fluorescence ex 360 nm / em 420 nm, 37°C, larger value = lower inhibitory efficiency) was 478, the “Vmax value and maximum fluorescence signal value of the polymerization curve” value (tubulin; in words) was “significantly smaller” and the solubility ([1]; FeSSIF solution, FeSSIF (pH 6.5), read-out: Solubility (µg/mL) FeSSIF (pH 6.5)) was 650 µg/mL. The thermodynamic solubility ([1]; in words, under neutral conditions, compared with the control compound) was “greater thermodynamic solubility”, the solubility ([1]; phosphate buffer saline (PBS), aqueous buffer, PBS (pH 7.4), read-out: Solubility (µg/mL) PBS (pH 7.4)) was 101 µg/mL and the “phosphorylation of SRC” value (p-SRC; 80 nM, A-431 cells, 24 hours) was “significantly inhibit the phosphorylation of SRC”. The p-SRC inhibitory activity (p-SRC; in words, compared with the control compound) was “better p-SRC inhibitory activity compared with the control compound”, the IC50 ([2]; Homo sapiens, 96 h, 4 days incubation) was 41.3 nM and the “inhibitory effect on HT 297.T cells” value ([2]; in words, versus control compound) was “significantly better than that of the control compound”.

Source: patent EP4745130A1, “CRYSTAL FORMS OF TUBULIN-SRC DUAL-TARGETING INHIBITOR, PREPARATION METHOD THEREFOR AND USE THEREOF” (Hubei Bio-Pharmaceutical Industrial Technological Institute …, priority 2023, dated 2025)
